Source: ChEMBL document CHEMBL1141367, “Substituted 2-[(4-aminomethyl)phenoxy]-2-methylpropionic acid PPARalpha agonists. 1. Discovery of a novel series of potent HDLc raising agents” (J Med Chem, 2007)

Assays:
[1] = Plasma clearance in Beagle dog at 2 mg/kg, iv; assay type: ADME, organism-based, Canis lupus familiaris; design: dose 2 mg/kg, route intravenous
[2] = Half life in Beagle dog plasma at 2 mg/kg, iv; assay type: ADME, organism-based, Canis lupus familiaris; design: dose 2 mg/kg, route intravenous
[3] = test system: Mus musculus; experiment: Decrease in VLDL cholesterol in human Apo-A-I transgenic C57BL/6 mouse at 1 mg/kg, po; assay type: functional; design: scale not given: the % may be the effect or the level left
[4] = target: T1, Peroxisome proliferator-activated receptor alpha (Homo sapiens) (UniProt Q07869); experiment: Agonist potency at PPARalpha expressed in CV1 cells relative to GW-590735; assay type: functional, cell-based; conditions: CV-1
T1 sequence (whole entry): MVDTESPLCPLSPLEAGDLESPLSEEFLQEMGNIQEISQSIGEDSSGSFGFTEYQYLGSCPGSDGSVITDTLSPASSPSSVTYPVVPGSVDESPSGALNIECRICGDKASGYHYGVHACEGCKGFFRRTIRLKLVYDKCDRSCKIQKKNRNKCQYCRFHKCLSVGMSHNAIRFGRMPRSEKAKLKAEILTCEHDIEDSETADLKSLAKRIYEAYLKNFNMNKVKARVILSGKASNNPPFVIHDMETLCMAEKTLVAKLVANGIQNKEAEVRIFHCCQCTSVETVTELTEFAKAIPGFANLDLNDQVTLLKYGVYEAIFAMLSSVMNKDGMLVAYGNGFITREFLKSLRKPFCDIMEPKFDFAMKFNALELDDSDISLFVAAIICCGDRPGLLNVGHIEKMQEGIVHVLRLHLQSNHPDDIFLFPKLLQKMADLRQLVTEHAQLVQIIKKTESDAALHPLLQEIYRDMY

[5] = target: T2, Peroxisome proliferator-activated receptor gamma (Homo sapiens, UniProt P37231); assay type: functional, cell-based, CV-1
T2 sequence (P37231 whole entry): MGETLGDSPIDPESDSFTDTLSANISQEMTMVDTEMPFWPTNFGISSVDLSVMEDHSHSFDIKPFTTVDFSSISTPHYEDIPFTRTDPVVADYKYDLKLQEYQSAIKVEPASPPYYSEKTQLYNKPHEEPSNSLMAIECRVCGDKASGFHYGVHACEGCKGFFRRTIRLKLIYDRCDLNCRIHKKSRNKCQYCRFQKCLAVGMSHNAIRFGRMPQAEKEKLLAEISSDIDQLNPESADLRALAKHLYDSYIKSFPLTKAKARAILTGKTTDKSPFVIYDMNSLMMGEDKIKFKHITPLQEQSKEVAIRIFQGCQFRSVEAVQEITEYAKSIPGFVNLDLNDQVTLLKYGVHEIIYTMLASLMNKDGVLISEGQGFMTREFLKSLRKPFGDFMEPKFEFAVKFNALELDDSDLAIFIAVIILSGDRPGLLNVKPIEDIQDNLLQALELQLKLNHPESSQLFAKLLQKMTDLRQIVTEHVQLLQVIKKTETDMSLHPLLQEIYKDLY
Description: Agonist potency at PPARgamma in CV1 cells by cell based transient transfection assay

[6] = test system: Mus musculus; experiment: Decrease in LDL cholesterol level in human Apo-A-I transgenic C57BL/6 mouse at 0.5 mg/kg, po; assay type: functional; design: scale not given: the % may be the effect or the level left
[7] = test system: Mus musculus; experiment: Decrease in LDL cholesterol level in human Apo-A-I transgenic C57BL/6 mouse at 1 mg/kg, po; assay type: functional; design: scale not given: the % may be the effect or the level left
[8] = test system: Mus musculus; experiment: Decrease in LDL cholesterol level in human Apo-A-I transgenic C57BL/6 mouse at 5 mg/kg, po; assay type: functional; design: scale not given: the % may be the effect or the level left
[9] = test system: Mus musculus; experiment: Decrease in plasma TG level in human Apo-A-I transgenic C57BL/6 mouse at 0.5 mg/kg, po; assay type: functional; design: scale not given: the % may be the effect or the level left
[10] = Plasma clearance in Wistar rat at 2.7 mg/kg, iv; assay type: ADME, organism-based; design: dose 2.7 mg/kg, route intravenous
[11] = Half life in Wistar rat plasma at 2.7 mg/kg, iv; assay type: ADME, organism-based; design: dose 2.7 mg/kg, route intravenous
[12] = Plasma concentration in Wistar rat at 3 mg/kg, po after 1.5 hrs; assay type: ADME, organism-based; design: dose 3 mg/kg, route oral
[13] = target: T3, Peroxisome proliferator-activated receptor delta (Mus musculus, UniProt P35396)
T3 sequence (P35396 whole entry): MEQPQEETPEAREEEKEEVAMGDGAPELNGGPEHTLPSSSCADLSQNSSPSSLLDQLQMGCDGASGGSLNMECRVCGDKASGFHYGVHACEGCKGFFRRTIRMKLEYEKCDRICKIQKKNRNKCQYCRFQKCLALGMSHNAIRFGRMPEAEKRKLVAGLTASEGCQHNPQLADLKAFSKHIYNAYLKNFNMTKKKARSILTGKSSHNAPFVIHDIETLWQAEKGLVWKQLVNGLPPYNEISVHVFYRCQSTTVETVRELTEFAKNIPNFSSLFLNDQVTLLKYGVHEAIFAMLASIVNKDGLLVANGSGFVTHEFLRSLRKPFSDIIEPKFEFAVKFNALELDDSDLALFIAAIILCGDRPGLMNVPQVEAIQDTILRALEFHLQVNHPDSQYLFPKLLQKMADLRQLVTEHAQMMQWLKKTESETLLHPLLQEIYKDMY
Description: Agonist potency at mouse PPARdelta

[14] = target: T4, Peroxisome proliferator-activated receptor gamma (Mus musculus, UniProt P37238)
T4 sequence (P37238 whole entry): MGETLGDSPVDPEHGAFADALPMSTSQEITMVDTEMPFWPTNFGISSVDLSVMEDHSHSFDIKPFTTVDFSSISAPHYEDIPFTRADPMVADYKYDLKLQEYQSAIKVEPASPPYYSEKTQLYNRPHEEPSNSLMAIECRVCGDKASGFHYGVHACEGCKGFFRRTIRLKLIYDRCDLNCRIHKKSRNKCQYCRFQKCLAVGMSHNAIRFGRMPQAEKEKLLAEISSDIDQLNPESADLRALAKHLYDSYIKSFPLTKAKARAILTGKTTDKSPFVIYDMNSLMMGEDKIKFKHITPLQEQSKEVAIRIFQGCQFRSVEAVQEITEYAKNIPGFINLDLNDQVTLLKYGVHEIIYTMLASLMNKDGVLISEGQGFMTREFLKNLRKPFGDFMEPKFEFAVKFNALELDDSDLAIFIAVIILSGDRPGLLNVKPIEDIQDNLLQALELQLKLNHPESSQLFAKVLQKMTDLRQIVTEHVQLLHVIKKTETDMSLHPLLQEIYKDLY
Description: Agonist potency at mouse PPARgamma

[15] = target: T5, Peroxisome proliferator-activated receptor delta (Homo sapiens, UniProt Q03181)
T5 sequence (Q03181 whole entry): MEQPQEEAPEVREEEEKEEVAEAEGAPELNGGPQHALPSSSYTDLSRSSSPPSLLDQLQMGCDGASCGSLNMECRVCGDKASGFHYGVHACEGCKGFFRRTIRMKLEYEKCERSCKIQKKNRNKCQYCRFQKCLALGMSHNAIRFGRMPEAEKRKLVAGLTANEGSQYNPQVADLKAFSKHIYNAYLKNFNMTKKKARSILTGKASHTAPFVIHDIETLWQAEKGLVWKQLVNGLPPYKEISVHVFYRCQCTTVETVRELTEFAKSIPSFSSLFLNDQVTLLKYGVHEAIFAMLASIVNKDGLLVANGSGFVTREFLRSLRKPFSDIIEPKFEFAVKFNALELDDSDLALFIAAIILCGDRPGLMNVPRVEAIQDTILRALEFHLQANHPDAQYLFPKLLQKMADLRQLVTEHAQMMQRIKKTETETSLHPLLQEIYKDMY
Description: Agonist potency at PPARdelta in CV1 cells by cell based transient transfection assay

Cc1nc(-c2ccc(C(F)(F)F)cc2)sc1C(=O)NCc1ccc(OC(C)(C)C(=O)O)cc1 [GW590735]
clearance [1]: 13 mL/min/kg
half-life [2]: 2.6 h
Activity [3]: 63%
Activity [4]: 95%
EC50 [5]: > 10000 nM
Activity [6]: 61%
Activity [7]: 65%
Activity [8]: 69%
Activity [9]: 37%
clearance [10]: 5 mL/min/kg
half-life [11]: 2.4 h
concentration at 1.5 h [12]: 1460 ng/mL
EC50 [13]: 1000 nM
EC50 [14]: > 10000 nM
EC50 [15]: 2830 nM
